Article PMC8565515, “Dasabuvir Inhibits Human Norovirus Infection in Human Intestinal Enteroids” (mSphere, 2021)
Read-outs that look alike come from different tables or passages of the source.

Assays:
[1] = system: J2 HIE monolayers; assay: Cytotoxicity by LDH assay in J2 HIE monolayers; details: compound 10 μM, n = 1, LDH assay, J2 HIE monolayers infected with GII.4 HuNoV, 24 hpi, normalized to DMSO control
[2] = system: GII.4 HuNoV; assay: GII.4 HuNoV infection of HIE monolayers, viral genome equivalents by RT-qPCR; type: cell-based, human norovirus; details: compound 10 μM, n = 1, J2 HIE monolayers, GII.4 HuNoV, 24 hpi, normalized to DMSO control; for activity at 10 µM: Norovirus, 24 h, read-out: (%) HuNoV GEs
[3] = system: J2 HIE monolayers

COC(=O)N[C@H](C(=O)NNC[C@H](O)[C@H](Cc1ccccc1)NC(=O)[C@@H](NC(=O)OC)C(C)(C)C)C(C)(C)C [Des(benzylpyridyl) Atazanavi]
(%) Cytotoxicity [1]: 2.40%
(%) HuNoV GEs [2]: 101.09%

CC1(C)[C@@H](O[C@H]2O[C@H](C(=O)O)[C@@H](O)[C@H](O)[C@H]2O[C@@H]2O[C@H](C(=O)O)[C@@H](O)[C@H](O)[C@H]2O)CC[C@]2(C)[C@H]3C(=O)C=C4[C@@H]5C[C@@](C)(C(=O)O)CC[C@]5(C)CC[C@@]4(C)[C@]3(C)CC[C@@H]12.N.N [Diammonium Glycyrrhizinate]
(%) Cytotoxicity [1]: 0.23%
(%) HuNoV GEs [2]: 22.61%

Cc1ccnc2c1NC(=O)c1cccnc1N2C1CC1 [Nevirapine]
(%) Cytotoxicity [1]: 0.72%
activity at 10 µM [2]: 56.6%

C[C@@H]1O[C@@H](O[C@H]2[C@H](Oc3cc(O)c4c(c3)O[C@H](c3ccc(O)cc3)CC4=O)O[C@H](CO)[C@@H](O)[C@@H]2O)[C@H](O)[C@H](O)[C@H]1O [Naringin]
(%) Cytotoxicity [1]: 5.67%
activity at 10 µM [2]: 101%

CCOC(=O)c1c(CSc2ccccc2)n(C)c2cc(Br)c(O)c(CN(C)C)c12.Cl [Arbidol hydrochloride]
(%) Cytotoxicity [1]: 15.58%
(%) HuNoV GEs [2]: 16.88%

C[C@H]1CO[C@@H]2Cn3cc(C(=O)NCc4ccc(F)cc4F)c(=O)c(O)c3C(=O)N12 [Cabotegravir]
(%) Cytotoxicity [1]: 5.83%
activity at 10 µM [2]: 54.1%

O=C(/C=C\n1cnc(-c2cc(C(F)(F)F)cc(C(F)(F)F)c2)n1)NNc1ccccn1 [Verdinexor]
(%) Cytotoxicity [1]: 10.81%
activity at 10 µM [2]: 142%

COc1ccc(C2CNC(=O)C2)cc1OC1CCCC1 (centres unmarked) [Rolipram]
(%) Cytotoxicity [1]: -0.46%
activity at 10 µM [2]: 78.7%

CN(C)[C@@H]1C(O)=C(C(N)=O)C(=O)[C@@]2(O)C(O)=C3C(=O)c4c(O)cccc4[C@@](C)(O)[C@H]3C[C@@H]12 [Tetracycline]
(%) Cytotoxicity [1]: 0.09%
activity at 10 µM [2]: 108%

COC(=O)c1cc(OC)c2c(c1-c1c(CO)cc(OC)c3c1OCO3)OCO2 [Bicyclol]
(%) Cytotoxicity [1]: 0.26%
activity at 10 µM [2]: 162%

O=C1CCC[C@@H]2[C@H]3CCC[N+]4([O-])CCC[C@@H](CN12)[C@@H]34 (some centres unmarked) [Oxymatrine]
(%) Cytotoxicity [1]: 2.33%
activity at 10 µM [2]: 56.1%

Cc1nnc(C(=O)NC(C)(C)c2nc(C(=O)NCc3ccc(F)cc3)c(O)c(=O)n2C)o1 [Raltegravir]
(%) Cytotoxicity [1]: 1.45%
activity at 10 µM [2]: 49.3%

CC1(C)[C@@H](O[C@H]2O[C@H](C(=O)O)[C@@H](O)[C@H](O)[C@H]2O[C@@H]2O[C@H](C(=O)O)[C@@H](O)[C@H](O)[C@H]2O)CC[C@]2(C)[C@H]3C(=O)C=C4[C@@H]5C[C@@](C)(C(=O)O)CC[C@]5(C)CC[C@@]4(C)[C@]3(C)CC[C@@H]12 [Glycyrrhizin]
(%) Cytotoxicity [1]: 4.28%
activity at 10 µM [2]: 103%

C=C1CC[C@@H]2[C@](C)(CO)[C@H](O)CC[C@@]2(C)[C@@H]1C/C=C1/C(=O)OC[C@H]1O [Andrographolide]
(%) Cytotoxicity [1]: -1.18%
activity at 10 µM [2]: 70.9%

Cc1cc(/C=C/C#N)cc(C)c1Nc1ccnc(Nc2ccc(C#N)cc2)n1 [Rilpivirine]
(%) Cytotoxicity [1]: 0.20%
activity at 10 µM [2]: 117%

Cc1cc(C#N)cc(C)c1Oc1nc(Nc2ccc(C#N)cc2)nc(N)c1Br [Etravirine]
(%) Cytotoxicity [1]: 24.52%
activity at 10 µM [2]: 28.8%

NC(=O)c1nc(F)c[nH]c1=O [Favipiravir]
(%) Cytotoxicity [1]: -1.51%
activity at 10 µM [2]: 81%

C[C@H]1CC[C@@]2(O)C(C)(C)[C@@H]3CC[C@@]2(C)[C@H]1C3 [Patchouli alcohol]
(%) Cytotoxicity [1]: 1.24%
(%) HuNoV GEs [2]: 83.87%

CCCCCCCCCC(=O)O[C@H]1CC[C@H]2[C@@H]3CCC4=CC(=O)CC[C@@H]4[C@H]3CC[C@]12C [Nandrolone decanoate]
(%) Cytotoxicity [1]: 0.98%
activity at 10 µM [2]: 58.9%

CC(C)OC(=O)[C@H](C)N[P@](=O)(OC[C@H]1O[C@@H](n2ccc(=O)[nH]c2=O)[C@](C)(F)[C@@H]1O)Oc1ccccc1 [Sofosbuvir]
(%) Cytotoxicity [1]: 0.74%
activity at 10 µM [2]: 22.6%

Vitamin E
(%) Cytotoxicity [1]: -0.33%
(%) HuNoV GEs [2]: 125.47%

Cl.N=C(N=C(N)N)N1CCOCC1 [Moroxydine hydrochloride]
(%) Cytotoxicity [1]: -1.11%
(%) HuNoV GEs [2]: 119.22%

Cc1cc(C)c(Nc2ccnc(Nc3ccc(C#N)cc3)n2)c(C)c1 [Dapivirine]
(%) Cytotoxicity [1]: 0.74%
activity at 10 µM [2]: 24.8%

COc1cc2c(cc1Cc1cccc(Cl)c1F)c(=O)c(C(=O)O)cn2[C@H](CO)C(C)C [Elvitegravir]
(%) Cytotoxicity [1]: 0.85%
activity at 10 µM [2]: 164%

CC(C)(C)C#Cc1cc(N(C(=O)[C@H]2CC[C@H](C)CC2)[C@H]2CC[C@H](O)CC2)c(C(=O)O)s1 [Lomibuvir]
(%) Cytotoxicity [1]: -1.75%
activity at 10 µM [2]: 87.6%

COc1ccnc(C[S+]([O-])c2nc3ccc(-n4cccc4)cc3[n-]2)c1C.[Na+] (centres unmarked) [Ilaprazole sodium]
(%) Cytotoxicity [1]: 1.57%
(%) HuNoV GEs [2]: 39.34%

COc1cc2ncnc(Nc3cccc(Cl)c3)c2cc1OC [AG-1478]
(%) Cytotoxicity [1]: 84.88%

COC[C@H]1C[C@@H](c2ncc(-c3ccc4c(c3)COc3cc5c(ccc6nc([C@@H]7CC[C@H](C)N7C(=O)[C@@H](NC(=O)OC)C(C)C)[nH]c65)cc3-4)[nH]2)N(C(=O)[C@H](NC(=O)OC)c2ccccc2)C1 [Velpatasvir]
(%) Cytotoxicity [1]: 1.45%
activity at 10 µM [2]: 59.8%

CCOC(=O)CCC(=O)O[C@H]1[C@H](O[C@@H]2[C@@H](C)[C@H](O[C@H]3C[C@@](C)(OC)[C@@H](O)[C@H](C)O3)[C@@H](C)C(=O)O[C@H](CC)[C@@](C)(O)[C@H](O)[C@@H](C)C(=O)[C@H](C)C[C@@]2(C)O)O[C@H](C)C[C@@H]1N(C)C [Erythromycin ethylsuccinate]
(%) Cytotoxicity [1]: 0.23%
activity at 10 µM [2]: 107%

O=c1c2ccccc2[se]n1-c1ccccc1 [Ebselen]
(%) Cytotoxicity [1]: 2.77%
activity at 10 µM [2]: 96.7%

CC(C)c1cc(Oc2c(Cl)cc(-n3nc(C#N)c(=O)[nH]c3=O)cc2Cl)n[nH]c1=O [MGL3196]
(%) Cytotoxicity [1]: -0.56%
activity at 10 µM [2]: 70.8%

CCn1cc(C(=O)O)c(=O)c2cc(F)c(N3CCNCC3)nc21 [Enoxacin]
(%) Cytotoxicity ([3]; human, 24 h, 10 μM): 0.62%
activity at 10 µM [2]: 12.5%

Clc1ccc(COC(Cn2ccnc2)c2ccc(Cl)cc2Cl)c(Cl)c1 (centres unmarked) [Miconazole]
(%) Cytotoxicity ([3]; human, 24 h, 10 μM): 25.21%
activity at 10 µM [2]: 76.8%

CCS(=O)(=O)CCn1c([N+](=O)[O-])cnc1C [Tinidazole]
(%) Cytotoxicity ([3]; human, 24 h, 10 μM): -0.09%
activity at 10 µM [2]: 41%

CN(C)[C@@H]1C(O)=C(C(N)=O)C(=O)[C@@]2(O)C(O)=C3C(=O)c4c(O)cccc4[C@@](C)(O)[C@H]3[C@H](O)[C@@H]12 [Oxytetracycline]
(%) Cytotoxicity ([3]; human, 24 h, 10 μM): 3.05%
activity at 10 µM [2]: 46.2%

Nc1ccn([C@@H]2CS[C@H](CO)O2)c(=O)n1 [Lamivudine]
(%) Cytotoxicity ([3]; human, 24 h, 10 μM): 0.86%
activity at 10 µM [2]: 118%

CCC[C@H](NC(=O)[C@@H]1[C@H]2CCC[C@H]2CN1C(=O)[C@@H](NC(=O)[C@@H](NC(=O)c1cnccn1)C1CCCCC1)C(C)(C)C)C(=O)C(=O)NC1CC1 [Telaprevir]
(%) Cytotoxicity ([3]; human, 24 h, 10 μM): 0.86%
activity at 10 µM [2]: 53.2%

Clc1ccc(Cn2c(CN3CCCC3)nc3ccccc32)cc1 [Clemizole]
(%) Cytotoxicity ([3]; human, 24 h, 10 μM): 3.11%
activity at 10 µM [2]: 85.7%

OC[C@H]1O[C@@H]2O[C@H]3[C@H](O)[C@@H](O)[C@@H](O[C@H]4[C@H](O)[C@@H](O)[C@@H](O[C@H]5[C@H](O)[C@@H](O)[C@@H](O[C@H]6[C@H](O)[C@@H](O)[C@@H](O[C@H]7[C@H](O)[C@@H](O)[C@@H](O[C@H]8[C@H](O)[C@@H](O)[C@@H](O[C@H]1[C@H](O)[C@H]2O)O[C@@H]8CO)O[C@@H]7CO)O[C@@H]6CO)O[C@@H]5CO)O[C@@H]4CO)O[C@@H]3CO [Beta-Cyclodextrin]
(%) Cytotoxicity ([3]; human, 24 h, 10 μM): -0.91%
activity at 10 µM [2]: 70.6%

C=CC1=C(C(=O)O)N2C(=O)[C@@H](NC(=O)/C(=N\O)c3csc(N)n3)[C@H]2SC1 [Cefdinir]
(%) Cytotoxicity ([3]; human, 24 h, 10 μM): 2.33%
activity at 10 µM [2]: 118%

COC(=O)C(C)(N)C(C)(C)C (centres unmarked) [6526-0824]
(%) Cytotoxicity [3]: 2.41%
(%) HuNoV GEs [2]: 131.97%

CCOCc1nc2c(N)nc3ccccc3c2n1CC(C)(C)O [Resiquimod]
(%) Cytotoxicity ([3]; human, 24 h, 10 μM): 2.61%
activity at 10 µM [2]: 76.7%

OC[C@H]1O[C@@H](O[C@@H]2OC=C[C@H]3[C@H](O)[C@@H]4O[C@]4(CO)[C@@H]23)[C@H](O)[C@@H](O)[C@@H]1O [Catalpol]
(%) Cytotoxicity ([3]; human, 24 h, 10 μM): 3.07%
activity at 10 µM [2]: 104%

C=CC1=C(C(=O)O)N2C(=O)[C@@H](NC(=O)/C(=N\OCC(=O)O)c3csc(N)n3)[C@H]2SC1 [Cefixime]
(%) Cytotoxicity ([3]; human, 24 h, 10 μM): 2.28%
activity at 10 µM [2]: 41.9%

COc1ncnc(NS(=O)(=O)c2ccc(N)cc2)c1OC [Sulfadoxine]
(%) Cytotoxicity ([3]; human, 24 h, 10 μM): 2.36%
activity at 10 µM [2]: 50%

COC1=C2C[C@@H](C)C[C@H](OC)[C@H](O)[C@@H](C)/C=C(\C)[C@H](OC(N)=O)[C@@H](OC)/C=C\C=C(/C)C(=O)NC(=CC1=O)C2=O [Geldanamycin]
(%) Cytotoxicity ([3]; human, 24 h, 10 μM): 67.53%
activity at 10 µM [2]: 18.6%

Nc1nc2c(ncn2COCCO)c(=O)[nH]1 [Aciclovir]
(%) Cytotoxicity ([3]; human, 24 h, 10 μM): 0.59%
activity at 10 µM [2]: 54.4%

N[C@@H](CCC(=O)N[C@@H](CS[C@@H]1CCn2ccc(CO)c21)C(=O)NCC(=O)O)C(=O)O [6466-0862]
(%) Cytotoxicity [3]: -0.22%
(%) HuNoV GEs [2]: 155.85%

O=C(O)P(=O)(O)O [Foscarnet sodium]
(%) Cytotoxicity ([3]; human, 24 h, 10 μM): 1.07%
activity at 10 µM [2]: 88.5%

O=C(O[C@@H]1Cc2c(O)cc(O)cc2O[C@@H]1c1cc(O)c(O)c(O)c1)c1cc(O)c(O)c(O)c1 [(-)-Epigallocatechin Gallate]
(%) Cytotoxicity ([3]; human, 24 h, 10 μM): 2.41%
activity at 10 µM [2]: 198%

O=C(/C=C/c1ccc(O)cc1)c1ccc(O)cc1O [Isoliquiritigenin]
(%) Cytotoxicity ([3]; human, 24 h, 10 μM): 0.86%
activity at 10 µM [2]: 172%
